In PubChem BioAssay (NCI):
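Interpolation was linear, between the two tested concentrations surrounding the appropriate level; five concentrations were tested over 48 hours in 96-well plates. TGI is the concentration that stops growth completely.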

Columns and labels:
Assay in all cases: NCI anticancer screen, dose series, 48 h
[1] = tested on: 786-0 renal
[2] = tested on: A498 renal
[3] = tested on: A549 NSCLC
[4] = tested on: ACHN renal
[5] = tested on: COLO 205 colon
[6] = tested on: EKVX NSCLC
[7] = tested on: HOP-62 NSCLC
[8] = tested on: HT29 colon
[9] = tested on: KM12 colon
[10] = tested on: M14 melanoma
[11] = tested on: MOLT-4 leukemia
[12] = tested on: OVCAR-3 ovarian
[13] = tested on: RXF 393 renal
[14] = tested on: SF-268 CNS
[15] = tested on: SK-MEL-5 melanoma
[16] = tested on: SK-OV-3 ovarian
[17] = tested on: SR leukemia
[18] = tested on: UACC-62 melanoma
[19] = tested on: K-562 leukemia

Compound | TGI [1] [µM] | TGI [2] [µM] | TGI [3] [µM] | TGI [4] [µM] | TGI [5] [µM] | TGI [6] [µM] | TGI [7] [µM] | TGI [8] [µM] | TGI [9] [µM] | TGI [10] [µM] | TGI [11] [µM] | TGI [12] [µM] | TGI [13] [µM] | TGI [14] [µM] | TGI [15] [µM] | TGI [16] [µM] | TGI [17] [µM] | TGI [18] [µM] | TGI [19] [µM]
N=C1C(=N)c2ccccc2-c2ccccc21 | 4.46 | 4.13 | 3.66 | 2.72 | 3.24 | 3.62 | 3.04 | 3.81 | 3.4 | 2.36 | 1.61 | 1.41 | 3.23 | 4.16 | 1.53 | 3.07 | 6.46 | 2.78 | –
Cc1cc2c(s1)C(=O)c1sccc1C2=O | 3.26 | 3.17 | 2.03 | 2.23 | 3.36 | 3.32 | – | 4.3 | 3 | 0.356 | > 22.4 | 2.19 | 2.46 | 2.09 | 0.301 | 4.47 | > 100 | 0.524 | –
NC1=NC(OCC2(CO)CCC2)C=C(NCC2(CO)CCC2)N1 (stereo not given) | > 100 | > 100 | > 100 | – | > 100 | > 100 | > 100 | > 100 | > 100 | > 100 | > 100 | > 100 | > 100 | > 100 | > 100 | > 100 | > 100 | > 100 | > 100
Cc1cc2oc(=O)[nH]c(=S)c2c(C)c1C | > 100 | > 100 | > 100 | > 100 | > 100 | > 100 | > 100 | > 100 | > 100 | > 100 | > 100 | > 100 | > 100 | > 100 | – | > 100 | > 100 | > 100 | > 100
CSc1cc(Cl)c(C)cc1S(=O)(=O)NC(=O)NNc1ccc(F)c(Cl)c1 | > 100 | > 100 | > 100 | > 100 | > 100 | > 100 | > 100 | > 100 | > 100 | > 100 | > 100 | > 100 | > 100 | > 100 | > 100 | > 100 | > 100 | – | > 100
CCN(CC)Cc1cc(Nc2c3ccccc3nc3c2[nH]c2ccccc23)ccc1O | 2.8 | 2.97 | 2.93 | 3.53 | 2.19 | 6.32 | 3.16 | 2.01 | 4.66 | 3.11 | > 100 | – | 2.77 | – | 3.51 | 6.83 | 1.01 | 3.01 | > 100
CCOC(=O)c1ccc(C(=O)/C(C#N)=C2\CCCN2)[nH]1 | > 100 | > 100 | > 100 | – | > 100 | > 100 | > 100 | > 100 | > 100 | > 100 | > 100 | > 100 | > 100 | > 100 | > 100 | > 100 | 84.5 | > 100 | > 100
CCOC(=O)c1c(NC(=O)Nc2ccccc2)c(C(N)=O)c2n1CCCCC2 | > 100 | > 100 | – | > 100 | > 100 | > 100 | > 100 | > 100 | > 100 | > 100 | > 100 | – | > 100 | > 100 | > 100 | > 100 | > 100 | > 100 | > 100
CCCNC(=S)/N=C\c1c(O)c2ccccc2oc1=O | > 100 | > 100 | > 100 | > 100 | > 100 | > 100 | > 100 | > 100 | > 100 | > 100 | > 100 | > 100 | > 100 | > 100 | > 100 | > 100 | > 100 | > 100 | –
CC(=O)O[C@H]1C(=O)[C@@]2(C)[C@H]([C@H](OC(=O)C3CCCCC3)[C@]3(O)C[C@H](OC(=O)[C@H](O)[C@@H](NC(=O)C4CCCCC4)C4CCCCC4)C(C)=C1C3(C)C)[C@]1(OC(C)=O)CO[C@@H]1C[C@@H]2O | 6.97 | 6.6 | 20.9 | 12.4 | 0.0266 | 25 | 0.803 | – | 5.53 | 1.2 | 4.18 | 0.0355 | 0.555 | 8.14 | 1.12 | 19.2 | 9.67 | 3.89 | 8.96
O=C(Cc1ccccc1)c1ccc2[nH]c(=O)oc2c1 | > 100 | > 100 | – | > 100 | > 100 | 64.4 | > 100 | > 100 | > 100 | > 100 | > 100 | > 100 | > 100 | > 100 | – | > 100 | > 100 | > 100 | > 100
CC(=O)c1ccc2c(c1)oc(=O)n2CCN1CCCCC1 | > 100 | > 100 | – | > 100 | > 100 | > 100 | > 100 | > 100 | > 100 | > 100 | > 100 | > 100 | > 100 | > 100 | > 100 | > 100 | > 100 | > 100 | > 100
Cc1ccc(S(=O)(=O)NNC(=S)Nc2cccc3ccccc23)cc1 | > 100 | 99.5 | > 100 | 79.9 | > 100 | > 100 | > 100 | > 100 | 99 | > 100 | > 100 | – | > 100 | > 100 | 33.1 | > 100 | > 100 | > 100 | > 100
